Reference: patent publication US9957569B2, “Recurrent gene fusions in prostate cancer” (THE REGENTS OF THE UNIVERSITY OF MICHIGAN, priority 2005, dated 2018)

How the values were obtained:
[1] = tested on: VCaP and LNCaP prostate cancer cell lines; experiment: QPCR of PSA and ETV1 in VCaP and LNCaP cells treated with R1881; type: cell-based, human
[2] = tested on: LNCaP prostate cancer cell line; experiment: Androgen stimulation time course of LNCaP cells, Q-PCR of FLJ35294, CANT1 and DDX5 transcripts; type: cell-based, human
Method: Q-PCR was carried out according to standard protocols.
Samples were normalized by the mRNA level of the housekeeping gene GAPDH. Androgen stimulation reactions were performed in triplicate, and all other reactions were performed in duplicate. RNA Ligase Mediated Rapid Amplification of cDNA Ends (RLM-RACE)

[3] = tested on: ERG; experiment: In vitro androgen responsiveness: ERG expression by QPCR after R1881; type: cell-based, human; details: 1 nM R1881, 24 h; for increase in expression of ERG compared to untreated controls: QPCR ERG/GAPDH; for expression of ERG after R1881 treatment compared to untreated controls: QPCR
Method: Quantitative PCR (QPCR) was performed using SYBR Green dye on an Applied Biosystems 7300 Real Time PCR system essentially as described (Chinnaiyan et al., Cancer Res 65, 3328 (2005); Rubin et al., Cancer Res 64, 3814 (2004)). Briefly, 1-5 μg of total RNA was reverse transcribed into cDNA using SuperScript III (Invitrogen) in the presence of random primers or random primers and oligo dT primers. All reactions were performed with SYBR Green Master Mix (Applied Biosystems) and 25 ng of both the forward and reverse primer using the manufacturer's recommended thermocycling conditions. All reactions were subjected to melt curve analysis and products from selected experiments were resolved by electrophoreses on 1.5% agarose gels. For each experiment, threshold levels were set during the exponential phase of the QPCR reaction using Sequence Detection Software version 1.2.2 (Applied Biosystems). The amount of each target gene relative to the housekeeping gene glyceraldehyde-3-phosphate dehydrogenase (GAPDH) for each sample was determined using the comparative threshold cycle (Ct) method (Applied Biosystems User Bulletin #2), with the cDNA sample serving as the calibrator for each experiment described in the figure legend. All oligonucleotide primers were synthesized by Integrated DNA Technologies. GAPDH primers were as described (Vandesompele et al., Genome Biol 3, RESEARCH0034 (2002)) and all other primers are listed (Table 4).
RWPE, LNCaP, VCap DuCaP, PC3 and PC3 cells stably transfected with the human androgen receptor (PC3+AR) (3) were treated for 24 h with 1% ethanol control or 1 nM of the synthetic androgen R1881. Total RNA was isolated and subjected to reverse transcription and QPCR as described above with ERG exon 5-6_f and _r primers. The relative amount of ERG/GAPDH for each sample was calibrated to the RWPE control sample.

[4] = tested on: ERG; experiment: Androgen regulation of Erg expression in LNCap and VCaP cells; type: cell-based, human; details: VCaP (TMPRSS2-ERG+), varying amounts of R1881, 48 hrs
Method: This Example describes the androgen regulation of Erg expression. LNCap (TMPRSS2-ERG-) and VCaP (TMPRSS2-ERG+) cell lines were used. The cells were contacted with varying amounts of R1881 for 48 hrs. Expression of Erg, PSA (+control) and beta-tubulin (−control) were assayed.

[5] = target: androgen receptor (AR) (Homo sapiens, UniProt P10275, T878A); details: LNCaP
Method: LNCaP, an androgen sensitive prostate cancer cell line, was maintained in RPMI with 10% FBS. For androgen stimulation experiments, cells were placed for two days in phenol red-free RPMI, supplemented with 5% of charcoal-treated FCS before being treated with 1% ethanol or 10 nM R1881 for the following time points 0, 3, 12, 24, and 48 hours. Cells were treated for 16 hours with androgen and crosslinked for chromatin immunoprecipitation (ChIP) analysis.
The input whole-cell extract DNA and the ChIP-enriched DNA were amplified by ligation-mediated PCR, and subjected to qPCR assessment of target promoters. ChIP enrichment was evaluated as a percentage of input DNA.

[6] = tested on: LNCaP prostate cancer cell line; experiment: Androgen stimulation of LNCaP cells, qPCR of endogenous 5′ fusion partner genes; type: cell-based, human; details: 1 nM R1881, 24 h
Method: For androgen stimulation experiments, LNCaP cells were grown in charcoal-stripped serum containing media for 24 hours before treatment for 24 hours with 1% ethanol or 1 nM of methyltrienolone (R1881, NEN Life Science Products, Boston, Mass.) dissolved in ethanol.
Quantitative PCR (QPCR) was performed using Power SYBR Green Mastermix (Applied Biosystems, Foster City, Calif.) on an Applied Biosystems 7300 Real Time PCR system as described (Tomlins et al., Cancer Res 66, 3396-400 (2006); Tomlins et al., Recurrent fusion of TMPRSS2 and ETS transcription factor genes in prostate cancer. Science 310, 644-8 (2005)). HMBS and GAPDH5, and PSA6 primers were as described. Androgen stimulation reactions were performed in quadruplicate, all other reactions were performed in duplicate.

androgen receptor (AR), sequence (P10275 whole entry T878A, the tested form may be a part): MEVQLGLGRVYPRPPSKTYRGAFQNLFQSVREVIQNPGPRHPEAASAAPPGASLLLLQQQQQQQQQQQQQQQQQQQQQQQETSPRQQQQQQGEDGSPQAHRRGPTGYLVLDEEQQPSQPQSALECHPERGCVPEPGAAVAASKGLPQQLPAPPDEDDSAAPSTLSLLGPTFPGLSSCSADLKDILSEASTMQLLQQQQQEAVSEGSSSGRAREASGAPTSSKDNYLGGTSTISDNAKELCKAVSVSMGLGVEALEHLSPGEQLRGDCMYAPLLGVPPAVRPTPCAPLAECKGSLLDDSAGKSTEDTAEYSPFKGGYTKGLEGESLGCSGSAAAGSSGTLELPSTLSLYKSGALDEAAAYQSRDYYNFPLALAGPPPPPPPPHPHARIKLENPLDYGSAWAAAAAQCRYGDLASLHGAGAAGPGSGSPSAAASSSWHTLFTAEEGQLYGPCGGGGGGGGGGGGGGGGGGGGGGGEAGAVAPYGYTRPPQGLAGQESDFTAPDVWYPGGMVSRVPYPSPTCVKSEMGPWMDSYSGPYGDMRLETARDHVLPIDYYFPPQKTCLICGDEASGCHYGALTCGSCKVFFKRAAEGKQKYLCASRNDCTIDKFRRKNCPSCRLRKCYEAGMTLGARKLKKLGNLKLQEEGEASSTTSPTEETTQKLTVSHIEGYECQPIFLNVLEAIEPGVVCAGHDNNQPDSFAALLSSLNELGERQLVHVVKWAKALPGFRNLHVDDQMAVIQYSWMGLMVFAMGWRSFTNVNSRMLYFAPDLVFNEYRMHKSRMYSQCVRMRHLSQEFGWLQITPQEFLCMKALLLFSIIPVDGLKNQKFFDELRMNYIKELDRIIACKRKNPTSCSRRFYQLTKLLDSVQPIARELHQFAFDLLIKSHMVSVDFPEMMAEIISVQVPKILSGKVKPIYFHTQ

C[C@]1(O)CC[C@H]2[C@@H]3CCC4=CC(=O)CCC4=C3C=C[C@@]21C [R1881, methyltrienolone]
ETV1 expression by QPCR ([1]; LNCaP cells, 1 nM R1881, 48 hours): induction
ETV1 expression ([1]; androgen-responsive VCaP cell line): does not induce
PSA expression by QPCR (normalized to GAPDH) ([1]; both VCaP and LNCaP cells, 1 nM R1881, 48 hours): induction
expression of DDX5 on R1881 stimulation ([2]; 10 nM R1881, Q-PCR): not affected
induction of expression of endogenous CANT1 ([2]; 10 nM R1881, at 24 hours, Q-PCR, P=0.0014): 3.8 fold
induction of expression of endogenous FL35294 ([2]; 10 nM R1881, at 48 hours, Q-PCR, P=0.0006): 11.6 fold
increase in expression of ERG compared to untreated controls ([3]; DuCaP cells): 2.57 fold
expression of ERG after R1881 treatment compared to untreated controls ([3]; LnCaP cells): 0.86 fold
expression of ERG after R1881 treatment compared to untreated controls ([3]; PC3 cells expressing the androgen receptor): 0.73 fold
expression of ERG after R1881 treatment compared to untreated controls ([3]; PC3 cells): 1.28 fold
expression of ERG after R1881 treatment compared to untreated controls ([3]; RWPE cells): 1.37 fold
increase in expression of ERG compared to untreated controls ([3]; VCaP cells): 5.02 fold
ERG expression, androgen dependence [4]: androgen dependent
AR recruitment to the promoter region of DDX5 (ChIP) ([5]; 16 hours after R1881): not recruited
AR occupancy of the promoter region of CANT1 (ChIP enrichment) ([5]; 16 hours after R1881, P=0.0014): 40 fold
AR occupancy of the promoter region of FL35294 (ChIP enrichment) ([5]; 16 hours after R1881, P=0.005): 9 fold
decrease in expression of C15ORF21 ([6]; P=0.0012): 1.9 fold
change in expression of HNRPA2B1 (not significantly changed) ([6]; P=0.29): 1.17 fold
increase in endogenous expression of HERV-K_22q11.23 ([6]; P=2.4E-4): 7.8 fold
increase in endogenous expression of SLC45A3 ([6]; P=6.5E-4): 21.6 fold
increase in endogenous expression of TMPRSS2 ([6]; P=9.95E-7): 14.8 fold
